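48-hour exposure; five concentrations; linearly interpolated endpoints. GI50 marks 50% less growth. The concentration for full growth arrest is given as TGI.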
Tests used:
Assay in all cases: inhibition of tumour cell growth, NCI panel, 48 h
[1] = test system: 786-0 renal
[2] = test system: A549 NSCLC
[3] = test system: ACHN renal
[4] = test system: BT-549 breast
[5] = test system: CAKI-1 renal
[6] = test system: CCRF-CEM leukemia
[7] = test system: COLO 205 colon
[8] = test system: DU-145 prostate
[9] = test system: EKVX NSCLC
[10] = test system: HCC-2998 colon
[11] = test system: HCT-116 colon
[12] = test system: HCT-15 colon
[13] = test system: HOP-62 NSCLC
[14] = test system: HOP-92 NSCLC
[15] = test system: HS 578T breast
[16] = test system: IGROV1 ovarian
[17] = test system: K-562 leukemia
[18] = test system: KM12 colon
[19] = test system: LOX IMVI melanoma
[20] = test system: M14 melanoma
[21] = test system: MDA-MB-231 breast
[22] = test system: MDA-MB-435
[23] = test system: NCI-H460 lung
[24] = test system: NCI-H522 lung
[25] = test system: NCI/ADR-RES ovarian
[26] = test system: OVCAR-3 ovarian
[27] = test system: OVCAR-4 ovarian
[28] = test system: OVCAR-5 ovarian
[29] = test system: PC-3 prostate
[30] = test system: RPMI-8226 leukemia
[31] = test system: RXF 393 renal
[32] = test system: SF-295 CNS
[33] = test system: SK-MEL-2 melanoma
[34] = test system: SK-MEL-28 melanoma
[35] = test system: SK-MEL-5 melanoma
[36] = test system: SK-OV-3 ovarian
[37] = test system: SN12C renal
[38] = test system: SNB-19 CNS
[39] = test system: SR leukemia
[40] = test system: SW-620 colon
[41] = test system: T-47D breast
[42] = test system: TK-10 renal
[43] = test system: U251 CNS
[44] = test system: UACC-257 melanoma
[45] = test system: UACC-62 melanoma
[46] = test system: UO-31 renal
[47] = test system: A498 renal
[48] = test system: HT29 colon
[49] = test system: MALME-3M melanoma
[50] = test system: MCF7 breast
[51] = test system: NCI-H226 lung
[52] = test system: NCI-H23 lung
[53] = test system: OVCAR-8 ovarian
[54] = test system: SF-268 CNS
[55] = test system: SF-539 CNS
[56] = test system: SNB-75 CNS

Cc1c(-c2ccnc(N)n2)c2c(n1Cc1ccccc1)C(=O)c1ccccc1C2=O
GI50 [1]: 5.02 µM
TGI [1]: 71 µM
GI50 [2]: > 100 µM
TGI [2]: > 100 µM
GI50 [3]: 8.34 µM
TGI [3]: 36.8 µM
GI50 [4]: 2.99 µM
TGI [4]: 8.4 µM
GI50 [5]: 4.66 µM
TGI [5]: 52.9 µM
GI50 [6]: > 100 µM
TGI [6]: > 100 µM
GI50 [7]: 15.5 µM
TGI [7]: 43.9 µM
GI50 [8]: 9.82 µM
TGI [8]: 41.2 µM
GI50 [9]: 7.11 µM
TGI [9]: 41.2 µM
GI50 [10]: 12.9 µM
TGI [10]: 35.8 µM
GI50 [11]: 3.7 µM
TGI [11]: 16.6 µM
GI50 [12]: 4.8 µM
TGI [12]: > 100 µM
GI50 [13]: 13.9 µM
TGI [13]: 43.6 µM
GI50 [14]: > 100 µM
TGI [14]: > 100 µM
GI50 [15]: 2.62 µM
TGI [15]: 8.05 µM
GI50 [16]: 4.84 µM
TGI [16]: 54.7 µM
GI50 [17]: 2.92 µM
TGI [17]: 44.4 µM
GI50 [18]: 8.82 µM
TGI [18]: 30.4 µM
GI50 [19]: 1.98 µM
TGI [19]: 6.65 µM
GI50 [20]: 16.2 µM
TGI [20]: > 100 µM
GI50 [21]: 1.73 µM
TGI [21]: 30.2 µM
GI50 [22]: 4.84 µM
TGI [22]: 24.2 µM
GI50 [23]: 6.42 µM
TGI [23]: 26.5 µM
GI50 [24]: > 100 µM
TGI [24]: > 100 µM
GI50 [25]: 13.3 µM
TGI [25]: > 100 µM
GI50 [26]: 2.83 µM
TGI [26]: 21.3 µM
GI50 [27]: 20.7 µM
TGI [27]: > 100 µM
GI50 [28]: 47.4 µM
TGI [28]: > 100 µM
GI50 [29]: 49.1 µM
TGI [29]: > 100 µM
GI50 [30]: > 100 µM
TGI [30]: > 100 µM
GI50 [31]: 11.3 µM
TGI [31]: 38.2 µM
GI50 [32]: 3.12 µM
TGI [32]: 15 µM
GI50 [33]: 11.3 µM
TGI [33]: 47.7 µM
GI50 [34]: 17.3 µM
TGI [34]: > 100 µM
GI50 [35]: 12.8 µM
TGI [35]: 27.8 µM
GI50 [36]: 18.2 µM
TGI [36]: 77.4 µM
GI50 [37]: > 100 µM
TGI [37]: > 100 µM
GI50 [38]: 18.1 µM
TGI [38]: > 100 µM
GI50 [39]: 1.84 µM
TGI [39]: 4.52 µM
GI50 [40]: 6.82 µM
TGI [40]: > 100 µM
GI50 [41]: 47.8 µM
TGI [41]: > 100 µM
GI50 [42]: 17.3 µM
TGI [42]: 66.8 µM
GI50 [43]: 3.91 µM
TGI [43]: 36.2 µM
GI50 [44]: 23.2 µM
TGI [44]: > 100 µM
GI50 [45]: > 100 µM
TGI [45]: > 100 µM
GI50 [46]: 3.28 µM
TGI [46]: 21.8 µM

O=C([O][Sn]([O]C(=O)c1ccccn1)([c]1ccccc1)[c]1ccccc1)c1ccccn1
GI50 [1]: 5.14 µM
TGI [1]: 16.8 µM
GI50 [47]: 1.87 µM
TGI [47]: 6.56 µM
GI50 [2]: 17.6 µM
TGI [2]: 31.5 µM
GI50 [3]: 9.36 µM
TGI [3]: 21.2 µM
GI50 [4]: 8.25 µM
TGI [4]: 20.7 µM
GI50 [5]: 1.61 µM
TGI [5]: 3.98 µM
GI50 [6]: 0.565 µM
TGI [6]: 2.95 µM
GI50 [7]: 6.28 µM
TGI [7]: 19.4 µM
GI50 [8]: 1.93 µM
TGI [8]: 4.19 µM
GI50 [9]: 13.7 µM
TGI [9]: 26.9 µM
GI50 [10]: 13.1 µM
TGI [10]: 26 µM
GI50 [11]: 1.71 µM
TGI [11]: 3.11 µM
GI50 [12]: 6.95 µM
TGI [12]: 20.4 µM
GI50 [13]: 16.5 µM
TGI [13]: 31.5 µM
GI50 [15]: 2.32 µM
TGI [15]: 8.88 µM
GI50 [48]: 3.06 µM
TGI [48]: 7.97 µM
GI50 [16]: 1.83 µM
TGI [16]: 4.03 µM
GI50 [17]: 0.405 µM
TGI [17]: 6.37 µM
GI50 [18]: 13.2 µM
TGI [18]: 25.9 µM
GI50 [19]: 1.4 µM
TGI [19]: 2.7 µM
GI50 [20]: 4.56 µM
TGI [20]: 15.8 µM
GI50 [49]: 1.61 µM
TGI [49]: 3.49 µM
GI50 [50]: 2.67 µM
TGI [50]: 13.4 µM
GI50 [21]: 5.29 µM
TGI [21]: 18.4 µM
GI50 [22]: 2.29 µM
TGI [22]: 6.04 µM
GI50 [51]: 14.7 µM
TGI [51]: 29.6 µM
GI50 [52]: 3.08 µM
TGI [52]: 12.8 µM
GI50 [23]: 12.2 µM
TGI [23]: 26.2 µM
GI50 [24]: 0.14 µM
TGI [24]: 0.291 µM
GI50 [25]: 11.8 µM
TGI [25]: 24.8 µM
GI50 [26]: 1.62 µM
TGI [26]: 2.98 µM
GI50 [27]: 7.53 µM
TGI [27]: 20.3 µM
GI50 [28]: 16.5 µM
TGI [28]: 30.1 µM
GI50 [53]: 11.3 µM
TGI [53]: 24 µM
GI50 [29]: 11.8 µM
TGI [29]: 25.6 µM
GI50 [30]: 1.86 µM
TGI [30]: 6.13 µM
GI50 [31]: 2.77 µM
TGI [31]: 13 µM
GI50 [54]: 2.76 µM
TGI [54]: 9.09 µM
GI50 [32]: 16.1 µM
TGI [32]: 31.9 µM
GI50 [55]: 6.65 µM
TGI [55]: 19.7 µM
GI50 [33]: 2.57 µM
TGI [33]: 6.26 µM
GI50 [34]: 3.4 µM
TGI [34]: 13.3 µM
GI50 [35]: 12.1 µM
TGI [35]: 24.4 µM
GI50 [36]: 55.5 µM
TGI [36]: > 100 µM
GI50 [37]: 13.8 µM
TGI [37]: 26.9 µM
GI50 [38]: 15.5 µM
TGI [38]: 29.1 µM
GI50 [56]: 2.54 µM
TGI [56]: 13 µM
GI50 [39]: 1.22 µM
TGI [39]: 11.3 µM
GI50 [40]: 1.13 µM
TGI [40]: 2.34 µM
GI50 [41]: 1.56 µM
TGI [41]: 3.33 µM
GI50 [42]: 2.63 µM
TGI [42]: 5.2 µM
GI50 [43]: 1.95 µM
TGI [43]: 4.62 µM
GI50 [44]: 1.62 µM
TGI [44]: 3.61 µM
GI50 [45]: 4.96 µM
TGI [45]: 17.5 µM
GI50 [46]: 2.05 µM
TGI [46]: 4.66 µM

— PubChem BioAssay (NCI)
